Measurements from US20200022936A1, “COMBINATIONS OF DICLOFENAC, H2 RECEPTOR ANTAGONISTS AND ALKALI METAL BICARBONATES FOR THE TREATMENT OF PAIN AND INFLAMMATION” (priority 2017, published 2020).

Assay: in vivo
Parameters: species or system Wistar rats
Details: male, Wistar, rat, po
Excerpt: The primary objective of the test was to compare the pharmacokinetics of diclofenac potassium when used as a single active compound with diclofenac potassium in combination with famotidine and/or potassium bicarbonate. In this experimental study, the aim was to observe how the addition of potassium bicarbonate to diclofenac and famotidine would change the pharmacokinetic properties of diclofenac potassium when diclofenac potassium is given alone or in combination with famotidine and/or potassium bicarbonate.
Male Wistar rats (240-260 g) were used in the study. The rats were maintained in an air-conditioned animals quarter at a temperature of 22±2° C. and a relative humidity of 50±10%. Food and water were allowed ad libitum. The animals were acclimatized to the facilities for five days, and then fasted with free access to water for 12 h prior to the experiment. All the animals were housed under similar conditions.
Bioavailability and pharmacokinetics of diclofenac were studied in all the normal state of rats following an oral administration of 1 mg/kg diclofenac potassium, 0.4 mg/kg famotidine and 0.72 mg/kg or 0.36 mg/kg potassium bicarbonate in different occasions. Each rat was further subjected to similar studies after administration of diclofenac potassium and/or diclofenac in combination with famotidine. A total of 30 rats were used in the study divided into 5 groups, each group was administered; diclofenac alone, or 4 different combinations of diclofenac as outlined below.
Six male and/or female rats per group were lavaged with 1 mg/kg Diclofenac potassium and combinations at a dosing volume of 2 ml/kg. Blood (0.2 ml) was taken from the tail vein prior to administration of test substances (0 h) and after 0.083, 0.167, 0.25, 0.5, 1, 2, 4, 8 and 12 h.
Blood samples were collected in tubes containing %5 Na2-EDTA and kept on ice until 50 ul dichloromethane was added and they were centrifuged at 7000×g for 5 min at 4° C. and supernatants were collected for LC/MSMS analysis.

O=C(O)Cc1ccccc1Nc1c(Cl)cccc1Cl [Diclofenac-K, 2[(2,6-dichlorophenyl)amino]benzeneacetic acid]
Cmax: 1260 ng/mL
Tmax of diclofenac: 15 min
AUC(0-t) (1 mg/kg): 7510 ng·h/mL
Cmax (1 mg/kg): 1262 ± 0.048 ng/mL
Tmax (1 mg/kg): 15 min
Blood Concentrations of Diclofenac Potassium (1 mg/kg, 0.083 h): 1.096 ± 0.054
Blood Concentrations of Diclofenac Potassium (1 mg/kg, 0.25 h): 1.262 ± 0.048
Blood Concentrations of Diclofenac Potassium (1 mg/kg, 0.5 h): 1.078 ± 0.137
Blood Concentrations of Diclofenac Potassium (1 mg/kg, 1 h): 0.943 ± 0.015
Blood Concentrations of Diclofenac Potassium (1 mg/kg, 2 h): 0.600 ± 0.159
Blood Concentrations of Diclofenac Potassium (1 mg/kg, 4 h): 0.600 ± 0.015
Blood Concentrations of Diclofenac Potassium (1 mg/kg, 8 h): 0.578 ± 0.033
Blood Concentrations of Diclofenac Potassium (1 mg/kg, 12 h): 0.486 ± 0.092
